Reference: patent US20240408169A1 (priority 2023, published 2024)
Where two headings read alike, the source gives them in different places. *1 amine or outer side, *2 acyl side, *3 side chain or, on linkers, in order; H or OH if unused. Where a SMILES comes first, the peptide text is derived from it. Bridges are numbered along the chain shown (N, C = ends). [ ]: non-standard residue; d: D form. The star is where a group is joined. NMePhe(2-(4-MorPh),5-Cl) = CN[C@@H](Cc1cc(Cl)ccc1-c1ccc(N2CCOCC2)cc1)C(=O)O; X13 = CN([C@@H](Cc1cc(Cl)ccc1-c1cnn(CCS(C)(=O)=O)c1)C(=O)[*:2])[*:1]; X99 = CC(=O)N1CCC(Oc2ccc(Cl)cc2C[C@@H](C(=O)[*:2])N(C)[*:1])CC1; NMehhhLys(Me) = CN([C@@H](CCCCCCCN(C)[*:3])C(=O)[*:2])[*:1]; Spiro(3.3)heptane2CO(2-CF3) = O=C(C1(C(F)(F)F)CC2(CCC2)C1)*; X22 = CN([C@@H](Cc1cc(Cl)ccc1-c1cnn(C)c1)C(=O)[*:2])[*:1]; X29 = CN([C@@H](Cc1cc(Cl)ccc1-c1cn[nH]c1)C(=O)[*:2])[*:1]; cBuCO(3,3-F2-1-CF3) = O=C(C1(C(F)(F)F)CC(F)(F)C1)*; Pro(trans-4-F) = O=C(O)[C@@H]1C[C@@H](F)CN1; Gly(cPr) = N[C@H](C(=O)O)C1CC1; X65 = CC1(C(=O)*)CC(F)(F)C1

Legend:
[1] = target: T1, CyclinA2/CDK2 (Homo sapiens, UniProt P20248); test: Fluorescence Polarization (FP) competitive binding assay, Cyclin A2/Cdk2;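 further: plates equilibrated two hours at room temperature before polarization reading, IC50 fitted from eight-concentration compound titration curves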
T1 construct: purchased CRELUX Protein Services

[2] = target: T2, CyclinB1/CDK1 (Homo sapiens, UniProt P14635); test: Fluorescence Polarization (FP) competitive binding assay, Cyclin B1/Cdk1;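 further: fluorescence polarization read after equilibration at room temperature, with IC50 taken from serially diluted dose-response curves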
T2 construct: purchased Eurofins, discovery 14-450

[3] = target: T3, CyclinE1/CDK2 (Homo sapiens, UniProt P24864); test: Fluorescence Polarization (FP) competitive binding assay, Cyclin E1/Cdk2;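 further: readings taken after two-hour equilibration at room temperature in HEPES buffer with NaCl, DTT, NP-40 and BSA, IC50 fitted from eight-concentration serial dilution series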
T3 construct: purchased Eurofins, discovery 14-475

[4] = test system: WI-38 cells; test: MTT proliferation assay, WI-38; format: cell-based; conditions: 3 days compound exposure, 1:3 serial dilution starting at 10 μM;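 further: Eight- or ten-point dilution series, with exposure length chosen to span about three to four cell doublings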
[5] = test system: NCI-H1048 cells; test: MTT proliferation assay, NCI-H1048; format: cell-based; conditions: 5 days compound exposure, 1:3 serial dilution starting at 10 μM;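 further: Dose-response in 96-well plates over 8 or 10 concentration points, with exposure spanning 3-4 cell doublings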
[6] = test system: OVCAR3 cells; test: MTT proliferation assay, OVCAR3; format: cell-based; conditions: 5 days compound exposure, 1:3 serial dilution starting at 10 μM;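 further: compound given as an 8- or 10-point series, one day after plating, with exposure covering roughly 3-4 cell doublings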
[7] = 8 nM Cyclin A2/Cdk2, 2 nM FAM probe, average of 2-3 independent experiments, read-out: Cyclin A FP IC50
[8] = 10 nM Cyclin B1/Cdk1, 2 nM FAM probe; average of 2-3 independent experiments; read-out: Cyclin B FP IC50
[9] = 10 nM Cyclin E1/Cdk2, 2 nM FAM probe, average of 2-3 independent experiments, read-out: Cyclin E FP IC50
[10] = read-out: Cyclin B FP IC50; 10 nM Cyclin B1/Cdk1, 2 nM FAM probe; average of 2-3 independent experiments

| SMILES | IC50 [1, 7] [µM] | IC50 [2, 8] [µM] | IC50 [3, 9] [µM] | GI50 [4] [µM] | GI50 [5] [µM] | GI50 [6] [µM] | IC50 [1] [µM] | IC50 [2, 10] [µM] | IC50 [3] [µM] |
| --- | --- | --- | --- | --- | --- | --- | --- | --- | --- |
| CC(C)C[C@@H]1NC(=O)[C@@H](N(C)C(=O)[C@@H](NC(=O)[C@@H]2C[C@@H](F)CN2C(=O)C2(C(F)(F)F)CC(F)(F)C2)C2CC2)CCCCCCCN(C)C(=O)[C@H](Cc2cc(Cl)ccc2-c2cn[nH]c2)N(C)C1=O [Example 167] ({cBuCO(3,3-F2-1-CF3)}-[Pro(trans-4-F)][Gly(cPr)][NMehhhLys(Me)]L[X29]; lactam 3-C) | 0.02 | 0.02 | 0.28 | 19.7 | 0.01 | 0.01 | – | – | – |
| CC(C)C[C@@H]1NC(=O)[C@@H](N(C)C(=O)[C@@H](NC(=O)[C@@H]2C[C@@H](F)CN2C(=O)C2(C(F)(F)F)CC(F)(F)C2)C2CC2)CCCCCCCN(C)C(=O)[C@H](Cc2cc(Cl)ccc2-c2ccc(N3CCOCC3)cc2)N(C)C1=O [Example 261] ({cBuCO(3,3-F2-1-CF3)}-[Pro(trans-4-F)][Gly(cPr)][NMehhhLys(Me)]L[NMePhe(2-(4-MorPh),5-Cl)]; lactam 3-C) | 0.02 | 0.02 | 0.43 | 14.1 | 0.01 | 0.01 | – | – | – |
| CC(C)C[C@@H]1NC(=O)[C@@H](N(C)C(=O)[C@@H](NC(=O)[C@@H]2C[C@@H](F)CN2C(=O)C2(C(F)(F)F)CC(F)(F)C2)C2CC2)CCCCCCCN(C)C(=O)[C@H](Cc2cc(Cl)ccc2-c2cnn(CCS(C)(=O)=O)c2)N(C)C1=O [Example 257] ({cBuCO(3,3-F2-1-CF3)}-[Pro(trans-4-F)][Gly(cPr)][NMehhhLys(Me)]L[X13]; lactam 3-C) | 0.02 | 0.02 | 0.12 | 13.3 | 0.01 | 0.01 | – | – | – |
| CC(C)C[C@@H]1NC(=O)[C@@H](N(C)C(=O)[C@@H](NC(=O)[C@@H]2C[C@@H](F)CN2C(=O)C2(C(F)(F)F)CC(F)(F)C2)C2CC2)CCCCCCCN(C)C(=O)[C@H](Cc2cc(Cl)ccc2-c2cnn(C)c2)N(C)C1=O [Example 49] ({cBuCO(3,3-F2-1-CF3)}-[Pro(trans-4-F)][Gly(cPr)][NMehhhLys(Me)]L[X22]; lactam 3-C) | 0.02 | 0.02 | 0.35 | 11.5 | 0.01 | 0.01 | – | – | – |
| CC(=O)N1CC=C(c2ccc(Cl)cc2C[C@H]2C(=O)NCCCCC=CC[C@H](N(C)C(=O)[C@@H](NC(=O)[C@@H]3C[C@@H](F)CN3C(=O)C3(C(F)(F)F)CC(F)(F)C3)C3CC3)C(=O)N[C@@H](CC(C)C)C(=O)N2C)CC1 [Example 18] | 0.09 | 0.02 | 6.19 | 9.03 | 0.17 | 0.34 | – | – | – |
| CC(=O)N1CCC(Oc2ccc(Cl)cc2C[C@H]2C(=O)N(C)CCCCCCC[C@H](N(C)C(=O)[C@@H](NC(=O)[C@@H]3C[C@@H](F)CN3C(=O)C3(C(F)(F)F)CC(F)(F)C3)C3CC3)C(=O)N[C@@H](CC(C)C)C(=O)N2C)CC1 [Example 243] ({cBuCO(3,3-F2-1-CF3)}-[Pro(trans-4-F)][Gly(cPr)][NMehhhLys(Me)]L[X99]; lactam 3-C) | – | – | – | 13.3 | 0.05 | 0.04 | 0.05 | 0.02 | 0.69 |
| CC(C)C[C@@H]1NC(=O)[C@@H](N(C)C(=O)[C@@H](NC(=O)[C@@H]2C[C@@H](F)CN2C(=O)[C@@]2(C(F)(F)F)CCCCO2)C2CC2)C/C=C\CCCCN(C)C(=O)[C@H](Cc2cc(Cl)ccc2-c2cnn(C)c2)N(C)C1=O [Example 174] | 0.02 | 0.02 | 0.1 | 6.98 | 0.01 | 0.01 | – | – | – |
| CC(C)C[C@@H]1NC(=O)[C@@H](N(C)C(=O)[C@@H](NC(=O)[C@@H]2C[C@@H](F)CN2C(=O)C2(C(F)(F)F)CC3(CCC3)C2)C2CC2)CCCCCCCN(C)C(=O)[C@H](Cc2cc(Cl)ccc2-c2cnn(C)c2)N(C)C1=O [Example 203] ({Spiro(3.3)heptane2CO(2-CF3)}-[Pro(trans-4-F)][Gly(cPr)][NMehhhLys(Me)]L[X22]; lactam 3-C) | – | – | – | 3.7 | 0.06 | 0.05 | 0.04 | 0.02 | 1.26 |
| CC(C)C[C@@H]1NC(=O)[C@@H](N(C)C(=O)[C@@H](NC(=O)[C@@H]2C[C@@H](F)CN2C(=O)C2(C)CC(F)(F)C2)C2CC2)CCCCCCCN(C)C(=O)[C@H](Cc2cc(Cl)ccc2-c2ccc(N3CCOCC3)cc2)N(C)C1=O [Example 365] (X65-[Pro(trans-4-F)][Gly(cPr)][NMehhhLys(Me)]L[NMePhe(2-(4-MorPh),5-Cl)]; lactam 3-C) | 0.02 | 0.02 | 1.17 | 3.18 | 0.01 | 0.01 | – | – | – |
